Active and inactive are the calls of the source. No cut-off for these calls is given here.
Assays:
4T1-Luc [1] = assay: Antimetastatic activity against mouse 4T1-Luc cells implanted in BALB/c mouse assessed as reduction in metastatic rate in spleen at 100 mg/kg, po administered daily for 32 days and measured on day 30 to 35 by IVIS fluorescence analysis; format: functional, organism-based; conditions: time 35.0 day
CD14-positive cell = assay: Immunostimulatory activity in human PBMC derived M-CSF stimulated CD14-positive cells assessed as reduction in IL-10 level at 0.1 to 10 uM supplemented with fresh medium containing compound on day 1, 3 and 5 followed by M-CSF/IL-4/IL-13 stimulation for 2 days with subsequent LPS induction and measured after 16 hrs; format: functional, cell-based; conditions: dose 0.1-10 µM, time 7.0 day
[2] = Oral bioavailability in Sprague-Dawley rat at 30 mg/kg administered via gavage by LC-MS/MS analysis; format: ADME, organism-based; conditions: in vivo
Cytochrome P450 2C9 = Cytochrome P450 2C9 (Homo sapiens, UniProt P11712); assay: Inhibition of CYP2C9 in human liver microsomes using diclofenac as substrate preincubated for 10 mins followed by NADPH regeneration system addition and measured after 10 mins by LC-MS/MS analysis; format: ADME, Microsome
[3] = Intrinsic clearance in human hepatocytes at 1 uM measured after 90 mins by LC-MS/MS analysis; format: ADME, cell-based, Hepatocyte; conditions: read-out: CLH
[4] = Mutagenicity in Salmonella typhimurium TA98 by Ames test; format: toxicity; conditions: salmonella enterica subsp. enterica serovar typhimurium
Cytochrome P450 2B6 = Cytochrome P450 2B6 (Homo sapiens, UniProt P20813); assay: Inhibition of CYP2B6 in human liver microsomes using bupropion as substrate preincubated for 10 mins followed by NADPH regeneration system addition and measured after 10 mins by LC-MS/MS analysis; format: ADME, Microsome
Mus musculus = assay: In vivo inhibition of TGFbetaR1 in mouse H22 cell implanted BALB/c mouse assessed as reduction in Smad phosphorylation at 15 to 50 mg/kg, po administered twice daily for 11 days measured 1 to 12 hrs post-last dose by immunoblotting analysis; format: functional, organism-based; conditions: dose lower […], dose upper 50.0 mg/kg, time 11.0 day
[5] = AUC (0 to last) in Beagle dog at 5 mg/kg, po by LC-MS/MS analysis; format: ADME, organism-based, Canis lupus familiaris; conditions: in vivo
[6] = Half life in CD-1 mouse at 1 mg/kg, iv by LC-MS/MS analysis; format: ADME, organism-based; conditions: in vivo
H22 [7] = assay: Antitumor activity against mouse H22 cells implanted in po dosed BALB/c mouse assessed as tumor growth inhibition administered twice daily for 11 days and measured 3 times per week during compound dosing; format: functional, organism-based; conditions: dose lower […], dose upper 50.0 mg/kg, time 11.0 day
[8] = Time at which unbound plasma concentration required to show cellular IC50 for inhibition of smad phosphorylation in mouse H22 cell implanted BALB/c mouse at 50 mg/kg, po administered twice daily for 11 days; format: functional; conditions: time 11 day
[9] = target: Receptor-interacting serine/threonine-protein kinase 2 (Homo sapiens) (UniProt O43353); assay: Inhibition of RIPK2 (unknown origin) assessed as residual activity at 1 uM relative to control
[10] = Drug metabolism in human liver microsomes; format: ADME, Microsome
[11] = target: Tyrosine-protein kinase Lck (Homo sapiens) (UniProt P06239); assay: Inhibition of LCK (unknown origin) assessed as residual activity at 1 uM relative to control
[12] = AUC (0 to last) in Sprague-Dawley rat at 1 mg/kg, iv by LC-MS/MS analysis; format: ADME, organism-based; conditions: in vivo
[13] = Toxicity in mouse CT26 cell implanted BALB/c mouse assessed as change in body weight at 50 mg/kg, po administered twice daily in presence of antimouse-PD-L1 antibody; format: organism-based; conditions: in vivo
[14] = Oral bioavailability in Beagle dog at 5 mg/kg via gavage by LC-MS/MS analysis; format: ADME, organism-based, Canis lupus familiaris; conditions: in vivo
H22 [15] = assay: Antitumor activity against mouse H22 cells implanted in BALB/c mouse assessed as tumor growth inhibition at 50 mg/kg, po administered twice daily for 11 days and measured 3 times per week during compound dosing relative to control; format: functional; conditions: H22, 264 h, time 11 day, read-out: TGI
[16] = target: Activin receptor type-1B (Homo sapiens) (UniProt P36896); assay: Inhibition of ALK4 (unknown origin) assessed as residual activity at 1 uM relative to control
4T1-Luc [17] = assay: Antimetastatic activity against mouse 4T1-Luc cells implanted in BALB/c mouse assessed as reduction in metastatic rate in kidney at 100 mg/kg, po administered daily for 32 days and measured on day 30 to 35 by IVIS fluorescence analysis; format: functional, organism-based; conditions: time 35.0 day
[18] = Cmax in Sprague-Dawley rat at 30 mg/kg, po administered via gavage by LC-MS/MS analysis; format: ADME, organism-based; conditions: in vivo
[19] = Drug metabolism in rat hepatocytes; format: ADME, cell-based, Hepatocyte
[20] = Half life in Beagle dog at 1 mg/kg, iv by LC-MS/MS analysis; format: ADME, organism-based, Canis lupus familiaris; conditions: in vivo
[21] = Metabolic stability in human liver microsomes assessed as parent compound remaining at 1 uM preincubated for 5 mins followed by NADPH addition by LC-MS/MS analysis; format: ADME, Microsome; conditions: read-out: Stability
[22] = Intrinsic clearance in cynomolgus monkey hepatocytes at 1 uM measured after 90 mins by LC-MS/MS analysis; format: ADME, cell-based, Macaca fascicularis, Hepatocyte; conditions: read-out: CLH
[23] = Intrinsic clearance in mouse hepatocytes at 1 uM measured after 90 mins by LC-MS/MS analysis; format: ADME, cell-based, Hepatocyte; conditions: read-out: CLH
T-cell = assay: Immunostimulatory activity in TGFbeta/anti-CD3 stimulated BALB/c mouse naive T cells assessed as reduction in Treg induction at 0.1 to 10 uM measured after 4 days by immunostaining based flow cytometry; format: functional; conditions: dose 0.1-10 µM, time 4.0 day
[24] = Volume of distribution at steady state in CD-1 mouse at 1 mg/kg, iv by LC-MS/MS analysis; format: ADME, organism-based; conditions: in vivo, read-out: Vdss
[25] = Volume of distribution at steady state in Beagle dog at 1 mg/kg, iv by LC-MS/MS analysis; format: ADME, organism-based, Canis lupus familiaris; conditions: in vivo, read-out: Vdss
[26] = Protein binding in cynomolgus monkey plasma at 0.2 to 10 uM measured after 4 hrs by equilibrium dialysis based LC-MS/MS analysis; format: ADME, cell-free, Macaca fascicularis; conditions: dose 0.2-10 µM, read-out: PPB (converted)
[27] = Protein binding in Beagle dog plasma at 0.2 to 10 uM measured after 4 hrs by equilibrium dialysis based LC-MS/MS analysis; format: ADME, cell-free, Canis lupus familiaris; conditions: dose 0.2-10 µM, read-out: PPB (converted)
[28] = AUC (0 to last) in CD-1 mouse at 75 mg/kg, po via gavage by LC-MS/MS analysis; format: ADME, organism-based; conditions: in vivo
[29] = target: Mitogen-activated protein kinase 14 (Homo sapiens, UniProt Q16539); assay: Inhibition of p38alpha (unknown origin) measured after 40 mins in presence of [gamma-33P]ATP by microbeta liquid scintillation counting analysis; format: toxicity
[30] = Toxicity in mouse CT26 cell implanted BALB/c mouse assessed as change in body weight at 50 mg/kg, po administered twice daily; format: organism-based; conditions: in vivo
[31] = target: TRAF2 and NCK-interacting protein kinase (Homo sapiens) (UniProt Q9UKE5); assay: Inhibition of TNIK (unknown origin) assessed as residual activity at 1 uM relative to control
[32] = Protein binding in human plasma at 0.2 to 10 uM measured after 4 hrs by equilibrium dialysis based LC-MS/MS analysis; format: ADME, cell-free; conditions: dose 0.2-10 µM, read-out: PPB (converted)
NIH3T3 = assay: Antiproliferative activity against mouse NIH/3T3 cells by celltitter-glo assay; format: functional, cell-based
[33] = Apparent permeability across apical to basolateral side in dog MDCK-MDR1 cells at 2 uM measured over 150 mins by LC-MS/MS analysis; format: ADME, cell-based, Canis lupus familiaris

Sequence of Cytochrome P450 2B6 (P20813 whole entry): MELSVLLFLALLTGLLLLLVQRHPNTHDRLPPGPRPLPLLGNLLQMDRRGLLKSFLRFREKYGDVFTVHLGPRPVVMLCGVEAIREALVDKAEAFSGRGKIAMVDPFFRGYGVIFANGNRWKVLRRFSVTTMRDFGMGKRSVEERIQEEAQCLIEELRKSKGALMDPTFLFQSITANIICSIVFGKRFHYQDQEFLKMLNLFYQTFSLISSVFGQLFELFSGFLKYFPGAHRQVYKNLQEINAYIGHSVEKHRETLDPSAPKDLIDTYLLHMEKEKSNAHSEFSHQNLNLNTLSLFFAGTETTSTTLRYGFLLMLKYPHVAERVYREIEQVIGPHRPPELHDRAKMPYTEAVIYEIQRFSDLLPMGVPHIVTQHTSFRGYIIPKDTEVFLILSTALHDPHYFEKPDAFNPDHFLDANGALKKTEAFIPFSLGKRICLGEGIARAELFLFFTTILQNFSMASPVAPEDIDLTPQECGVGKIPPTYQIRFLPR
Sequence of Tyrosine-protein kinase Lck (Homo sapiens) (P06239 2-509 limits assumed): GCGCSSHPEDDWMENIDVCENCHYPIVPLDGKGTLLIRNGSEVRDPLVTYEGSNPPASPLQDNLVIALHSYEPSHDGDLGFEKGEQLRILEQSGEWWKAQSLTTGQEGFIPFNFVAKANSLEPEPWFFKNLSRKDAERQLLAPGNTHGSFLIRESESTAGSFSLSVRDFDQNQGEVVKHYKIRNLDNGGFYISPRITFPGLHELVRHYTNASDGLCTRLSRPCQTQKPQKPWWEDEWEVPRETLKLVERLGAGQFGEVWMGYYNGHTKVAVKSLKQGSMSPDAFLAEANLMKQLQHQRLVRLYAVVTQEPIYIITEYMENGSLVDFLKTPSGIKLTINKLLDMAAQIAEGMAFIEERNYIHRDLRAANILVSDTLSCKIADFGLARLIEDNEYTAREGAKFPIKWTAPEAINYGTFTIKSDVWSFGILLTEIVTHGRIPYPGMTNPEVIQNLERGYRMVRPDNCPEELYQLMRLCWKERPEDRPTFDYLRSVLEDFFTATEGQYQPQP
Sequence of TRAF2 and NCK-interacting protein kinase (Homo sapiens) (Q9UKE5 whole entry, looked up): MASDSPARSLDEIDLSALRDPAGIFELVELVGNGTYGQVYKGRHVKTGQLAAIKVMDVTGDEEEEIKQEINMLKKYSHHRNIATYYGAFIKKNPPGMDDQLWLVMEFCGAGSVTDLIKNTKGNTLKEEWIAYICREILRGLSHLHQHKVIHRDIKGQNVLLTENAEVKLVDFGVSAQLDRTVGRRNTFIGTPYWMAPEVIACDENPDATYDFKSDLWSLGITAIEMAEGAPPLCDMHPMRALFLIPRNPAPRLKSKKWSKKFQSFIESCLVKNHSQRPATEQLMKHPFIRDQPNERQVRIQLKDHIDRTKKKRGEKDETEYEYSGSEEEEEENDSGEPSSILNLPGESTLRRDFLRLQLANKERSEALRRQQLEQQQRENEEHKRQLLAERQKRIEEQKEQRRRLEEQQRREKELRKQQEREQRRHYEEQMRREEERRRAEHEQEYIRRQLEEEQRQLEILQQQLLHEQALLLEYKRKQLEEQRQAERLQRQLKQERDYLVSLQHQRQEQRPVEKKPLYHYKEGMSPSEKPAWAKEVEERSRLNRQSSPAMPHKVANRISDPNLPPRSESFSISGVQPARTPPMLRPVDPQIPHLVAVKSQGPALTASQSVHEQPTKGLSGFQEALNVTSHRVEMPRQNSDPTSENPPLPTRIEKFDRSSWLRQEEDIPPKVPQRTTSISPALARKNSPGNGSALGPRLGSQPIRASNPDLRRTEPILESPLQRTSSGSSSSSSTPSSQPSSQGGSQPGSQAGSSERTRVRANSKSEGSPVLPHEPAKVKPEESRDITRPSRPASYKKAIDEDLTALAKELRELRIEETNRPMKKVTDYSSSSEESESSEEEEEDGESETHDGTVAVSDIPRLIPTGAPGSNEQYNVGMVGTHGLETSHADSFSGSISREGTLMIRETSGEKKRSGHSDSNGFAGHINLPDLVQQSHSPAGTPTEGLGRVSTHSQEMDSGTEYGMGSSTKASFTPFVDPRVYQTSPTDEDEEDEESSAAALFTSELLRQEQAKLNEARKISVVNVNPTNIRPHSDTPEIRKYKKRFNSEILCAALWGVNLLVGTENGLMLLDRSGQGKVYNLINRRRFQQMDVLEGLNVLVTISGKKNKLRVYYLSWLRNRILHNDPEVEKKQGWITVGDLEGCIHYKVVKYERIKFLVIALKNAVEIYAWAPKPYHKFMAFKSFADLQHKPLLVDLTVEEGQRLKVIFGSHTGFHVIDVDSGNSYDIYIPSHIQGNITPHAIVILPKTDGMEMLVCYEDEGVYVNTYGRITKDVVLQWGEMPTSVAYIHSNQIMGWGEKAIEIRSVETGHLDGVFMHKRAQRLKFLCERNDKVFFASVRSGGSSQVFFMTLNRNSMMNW
Sequence of Cytochrome P450 2C9 (P11712 whole entry): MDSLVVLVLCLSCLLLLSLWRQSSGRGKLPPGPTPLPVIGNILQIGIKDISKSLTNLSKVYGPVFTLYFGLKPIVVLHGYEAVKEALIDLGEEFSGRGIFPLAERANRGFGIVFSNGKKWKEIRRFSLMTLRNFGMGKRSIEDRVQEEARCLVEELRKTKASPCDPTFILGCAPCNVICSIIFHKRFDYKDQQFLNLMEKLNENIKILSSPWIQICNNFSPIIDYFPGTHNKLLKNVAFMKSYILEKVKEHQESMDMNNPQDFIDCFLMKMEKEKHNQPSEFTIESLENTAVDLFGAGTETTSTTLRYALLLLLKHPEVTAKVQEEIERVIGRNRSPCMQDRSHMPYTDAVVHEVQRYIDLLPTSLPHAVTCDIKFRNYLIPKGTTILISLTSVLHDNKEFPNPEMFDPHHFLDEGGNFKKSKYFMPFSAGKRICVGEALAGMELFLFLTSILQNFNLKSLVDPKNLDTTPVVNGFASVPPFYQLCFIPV
Sequence of Mitogen-activated protein kinase 14 (Q16539 whole entry): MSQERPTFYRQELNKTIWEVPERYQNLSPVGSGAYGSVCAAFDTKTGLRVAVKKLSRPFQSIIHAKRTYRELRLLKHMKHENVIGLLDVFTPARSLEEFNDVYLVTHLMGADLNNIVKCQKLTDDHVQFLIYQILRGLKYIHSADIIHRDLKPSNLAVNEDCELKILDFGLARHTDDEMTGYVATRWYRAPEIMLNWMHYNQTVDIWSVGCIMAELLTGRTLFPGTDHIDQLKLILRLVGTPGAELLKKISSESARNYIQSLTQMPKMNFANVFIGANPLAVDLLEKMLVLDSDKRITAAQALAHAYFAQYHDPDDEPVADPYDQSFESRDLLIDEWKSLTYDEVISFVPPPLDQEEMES
Sequence of Receptor-interacting serine/threonine-protein kinase 2 (Homo sapiens) (O43353 whole entry): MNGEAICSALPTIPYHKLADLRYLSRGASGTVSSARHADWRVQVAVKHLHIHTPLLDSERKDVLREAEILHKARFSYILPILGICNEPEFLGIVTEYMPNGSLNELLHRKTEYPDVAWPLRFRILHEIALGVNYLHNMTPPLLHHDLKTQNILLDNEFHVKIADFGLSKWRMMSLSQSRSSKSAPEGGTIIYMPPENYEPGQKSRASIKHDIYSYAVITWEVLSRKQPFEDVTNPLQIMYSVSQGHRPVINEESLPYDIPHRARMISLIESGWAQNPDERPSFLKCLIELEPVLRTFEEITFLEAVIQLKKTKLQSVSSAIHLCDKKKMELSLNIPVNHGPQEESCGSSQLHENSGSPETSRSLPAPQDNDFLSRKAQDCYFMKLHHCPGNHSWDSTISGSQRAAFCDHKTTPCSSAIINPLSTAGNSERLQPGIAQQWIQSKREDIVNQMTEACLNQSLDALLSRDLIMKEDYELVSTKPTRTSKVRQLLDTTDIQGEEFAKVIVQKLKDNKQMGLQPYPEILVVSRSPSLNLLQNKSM
Sequence of Activin receptor type-1B (Homo sapiens) (P36896 whole entry): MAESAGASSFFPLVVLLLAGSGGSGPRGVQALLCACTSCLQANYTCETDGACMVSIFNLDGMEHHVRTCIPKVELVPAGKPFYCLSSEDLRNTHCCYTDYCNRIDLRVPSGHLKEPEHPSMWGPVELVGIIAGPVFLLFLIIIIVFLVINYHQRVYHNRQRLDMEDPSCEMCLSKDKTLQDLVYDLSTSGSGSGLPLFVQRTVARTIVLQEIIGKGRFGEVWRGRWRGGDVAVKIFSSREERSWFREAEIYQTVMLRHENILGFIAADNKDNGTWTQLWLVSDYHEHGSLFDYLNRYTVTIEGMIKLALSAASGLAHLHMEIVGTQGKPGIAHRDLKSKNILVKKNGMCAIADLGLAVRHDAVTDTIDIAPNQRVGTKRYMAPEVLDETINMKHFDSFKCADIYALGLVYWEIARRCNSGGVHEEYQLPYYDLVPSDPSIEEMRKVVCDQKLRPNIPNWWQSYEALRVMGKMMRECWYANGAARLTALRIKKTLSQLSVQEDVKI

For `Cc1cccc(-c2nn3c(c2-c2ccc4ncnn4c2/C=C/C(N)=O)CCC3)n1`, which Activity (4T1-Luc [1]) is on record?
Its Activity is “Active”.

And the Activity (CD14-positive cell)?
The Activity was “Active”.

What about the bioavailability [2] of the same compound?
Its bioavailability is 29.9%.

And the IC50 (Cytochrome P450 2C9)?
Its IC50 is > 100000 nM.

What about the CLint scaled at […], 1 µM [3] of the same compound?
Its CLint scaled at […], 1 µM is < 6.9 mL/min/kg.

And the Activity [4]?
Its Activity is “Non-toxic”.

What about the IC50 (Cytochrome P450 2B6) of the same compound?
The IC50 was > 100000 nM.

And the inhibition (Mus musculus)?
Its inhibition is “Active; Observed A Significant Decline In Phosphorylated Smad3 Protein At 1 H But Nearly Absent At […] Hrs”.

What about the AUClast [5] of the same compound?
The AUClast was 18284 nM.hr/ml.

What about the half-life [6] of the same compound?
The half-life was 0.484 h.

What about the TGI (H22 [7]) of the same compound?
The TGI was “Dose-dependent-effect”.

And the “T>IC50” value [8]?
The value was ~5.5 h.

And the Activity [9]?
Its Activity is < 50%.

What about the Drug metabolism [10] of the same compound?
Its Drug metabolism is “metabolite_detected”.

And the Activity [11]?
Its Activity is < 50%.

And the AUClast [12]?
The AUClast was 1332 nM.hr/ml.

And the Activity [13]?
The Activity was “Non-toxic”.

And the bioavailability [14]?
The bioavailability was 65.5%.

What about the inhibition in vivo at 50 mg/kg (H22 [15]) of the same compound?
Its inhibition in vivo at 50 mg/kg is 57.5%.

And the Activity [16]?
Its Activity is < 50%.

What about the Activity (4T1-Luc [17]) of the same compound?
The Activity was “Active”.

And the Cmax [18]?
Its Cmax is 9553 nM/ml.

And the Drug metabolism [19]?
Its Drug metabolism is “metabolite_detected”.

And the half-life [20]?
The half-life was 3.16 h.

What about the remaining at 1 µM [21] of the same compound?
Its remaining at 1 µM is 87.5%.

What about the CLint scaled at […], 1 µM [22] of the same compound?
The CLint scaled at […], 1 µM was 19.3 mL/min/kg.

What about the CLint scaled at […], 1 µM [23] of the same compound?
The CLint scaled at […], 1 µM was 298 mL/min/kg.

What about the Activity (T-cell) of the same compound?
Its Activity is “Active”.

And the Vd [24]?
The Vd was 1.4 L/kg.

And the Vd [25]?
The Vd was 0.961 L/kg.

And the fraction unbound at 4 h, up to 10 µM [26]?
The fraction unbound at 4 h, up to 10 µM was 0.522.

What about the fraction unbound at 4 h, up to 10 µM [27] of the same compound?
Its fraction unbound at 4 h, up to 10 µM is 0.476.

And the AUClast [28]?
Its AUClast is 18137 nM.hr/ml.

And the IC50 [29]?
Its IC50 is 2650 nM.

What about the Activity [30] of the same compound?
The Activity was “Non-toxic”.

And the Activity [31]?
Its Activity is < 50%.

What about the fraction unbound at 4 h, up to 10 µM [32] of the same compound?
Its fraction unbound at 4 h, up to 10 µM is 0.556.

And the IC50 (NIH3T3)?
The IC50 was 730 nM.

What about the Papp A→B at 2.5 h, 2 µM [33] of the same compound?
Its Papp A→B at 2.5 h, 2 µM is 0.39 ×10⁻⁶ cm/s.

From ChEMBL document CHEMBL6182942, “Discovery of a Selective, Novel TGF-βR1 Inhibitor GFH018 for the Treatment of Solid Tumors” (J Med Chem, 2025)
